Counter-ions that a name gives are not always drawn.
SMILES	melting point
COc1cc(CC(=O)N(C)CCOc2ccc(C(=O)O)cc2N)ccc1NC(=O)Nc1ccccc1F [Compound 292, 3-amino-4-[[2-[3-methoxy-4-[N′-(2-fluorophenyl)ureido]phenylacetyl]methylamino]ethoxy]benzoic acid]	125 to 130 °C
COc1cc(CC(=O)N(C)[C@@H](C)COc2ccc(C(=O)O)cc2Cl)ccc1NC(=O)Nc1ccccc1C [Compound 284]	125 to 130 °C
COc1cc(CC(=O)N2C[C@@H](NS(=O)(=O)c3ccc4ccccc4c3)C[C@H]2COc2ccc(C(=O)O)cc2)ccc1NC(=O)Nc1ccccc1Cl [Compound 161, 4-[cis-1-[4-[N′-(2-chlorophenyl)ureido]-3-methoxylphenylacetyl]-4-(2-naphthalenesulfonamido)-(2S)-pyrrolidinyl]methoxybenzoic acid]	135 to 142 °C
COc1cc(CC(=O)N2C3CCCCC3C[C@H]2COc2ccc(C(=O)O)cc2)ccc1NC(=O)Nc1ccccc1C (stereo partly drawn) [Compound 165, 4-[1-[3-methoxy-4-[N′-(2-methylphenyl)ureido]phenylacetyl]-(2S)-octahydroindolylmethoxy]benzoic acid]	130 to 134 °C
COc1cc(CC(=O)N2C[C@@H](N(C)C)C[C@H]2COc2ccc(C(=O)O)cc2)ccc1NC(=O)Nc1ccccc1C	147 to 150 °C
COc1cc(CC(=O)N(C)[C@@H](C)COc2ccc(C(=O)O)cc2Cl)ccc1NC(=O)Nc1ccccc1F [Compound 283, (S)-3-chloro-4-[2-[N-methyl-N-[3-methoxy-4-[N′-(2-fluorophenyl)ureido]phenylacetyl]amino]-1-propoxy]benzoic acid]	142 to 147 °C
COc1cc(CC(=O)N2CCC[C@H]2COC2CCC(C(=O)O)CC2)ccc1NC(=O)Nc1ccccc1C (stereo partly drawn) [Compound 174, 4-[[1-[3-methoxy-4-[N′(2-methylphenyl)ureido]phenylacetyl]-(2S)-pyrrolidinyl]methoxy]cyclohexanecarboxylic acid]	110 to 113 °C
COc1cc(CC(=O)N2CSC[C@H]2COc2ccc(C(=O)O)cc2)ccc1NC(=O)Nc1ccccc1Cl (stereo in doubt) [Compound 169, 4-[3-[4-[N′-(2-chlorophenyl)ureido]-3-methoxyphenylacetyl]-4-thiazolidinyl]methoxybenzoic acid]	126 to 129 °C
Cc1cc(CC(=O)N2C[C@@H](F)C[C@H]2COc2ccc(C(=O)O)cc2)ccc1NC(=O)Nc1ccccc1 [Compound 73, 4-[(4S)-fluoro-1-[3-methyl-4-(N′-phenylureido)phenylacetyl]-(2S)-pyrrolidinylmethoxy]benzoic acid]	130 to 135 °C
COc1cc(CC(=O)N[C@H](C)COc2ccc(C(=O)O)cc2OC)ccc1NC(=O)Nc1ccccc1C [Compound 260, (R)-3-methoxy-4-[2-[3-methoxy-4-[N′-(2-methylphenyl)ureido]phenylacetylamino]-1-propoxy]benzoic acid]	168 to 169 °C
COc1cc(CC(=O)N2C[C@@H](NS(=O)(=O)c3c(C)cc(C)cc3C)C[C@H]2COc2ccc(C(=O)O)cc2)ccc1NC(=O)Nc1ccccc1Br [Compound 162]	130 to 132 °C
COc1cc(CC(=O)N2C[C@@H](O)C[C@H]2COc2ccc(C(=O)O)cc2)ccc1NC(=O)Nc1ccccc1C [Compound 106]	148 to 152 °C (dec.)
COc1cc(CC(=O)N2CCCC2CN2CCN(CC(=O)O)CC2)ccc1NC(=O)Nc1ccccc1C (stereo not drawn) (as salt: salt)	160 to 170 °C
COc1cc(CC(=O)N2CC[C@@H](Oc3ccc(C(=O)O)cc3)C2)ccc1NC(=O)Nc1ccccc1C [Compound 185, 4-[1-[3-methoxy-4-[N′-(2-methylphenyl)ureido]phenylacetyl]-(3R)-pyrrolidinyloxy]benzoic acid]	158 to 162 °C
Cc1cc(CC(=O)N2CCC[C@H]2COc2ccc(C(=O)O)cc2)ccc1NC(=O)Nc1ccccc1Br [Compound 82, 4-[1-[4-[N′-(2-bromophenyl)ureido]-3-methylphenylacetyl]-(2S)-pyrrolidinyl]methoxybenzoic acid]	125 to 130 °C

— patent publication US7179819B2, “VLA-4 inhibitor compounds” (Daiichi Pharmaceutical Co., Ltd., priority 1999, dated 2007)
